In patent publication US7074789B2, “Kinase inhibitors” (Amgen Inc., priority 1999, dated 2006):
Read-outs that look alike come from different tables or passages of the source.

Legend:
Assay type in all cases: biochemical
[1] = target: T1, EGFR (Homo sapiens, UniProt P00533); test: Kinase inhibition assay (33P transfer), EGFR; conditions: Table 2, kinase inhibition class; read-out: EGFR-1
T1 construct: Kinases are expressed as either kinase domains or full length constructs; made in house
In short: (§1)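 Read-out: scintillation counts of 33P moved from ATP onto synthetic peptide polymer coated on the well surface, after washing with 0.5% phosphoric acid. Enzymes were tagged (GST or polyHistidine) and came from bacterial or insect-cell expression. IC50 marks 50% loss of incorporated label.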

[2] = target: T2, Itk (Homo sapiens, UniProt Q08881); test: Kinase inhibition assay (33P transfer), Itk; conditions: read-out: Itk-1
T2 construct: Kinases are expressed as either kinase domains or full length constructs; made in house
T2 sequence (Q08881 1-620): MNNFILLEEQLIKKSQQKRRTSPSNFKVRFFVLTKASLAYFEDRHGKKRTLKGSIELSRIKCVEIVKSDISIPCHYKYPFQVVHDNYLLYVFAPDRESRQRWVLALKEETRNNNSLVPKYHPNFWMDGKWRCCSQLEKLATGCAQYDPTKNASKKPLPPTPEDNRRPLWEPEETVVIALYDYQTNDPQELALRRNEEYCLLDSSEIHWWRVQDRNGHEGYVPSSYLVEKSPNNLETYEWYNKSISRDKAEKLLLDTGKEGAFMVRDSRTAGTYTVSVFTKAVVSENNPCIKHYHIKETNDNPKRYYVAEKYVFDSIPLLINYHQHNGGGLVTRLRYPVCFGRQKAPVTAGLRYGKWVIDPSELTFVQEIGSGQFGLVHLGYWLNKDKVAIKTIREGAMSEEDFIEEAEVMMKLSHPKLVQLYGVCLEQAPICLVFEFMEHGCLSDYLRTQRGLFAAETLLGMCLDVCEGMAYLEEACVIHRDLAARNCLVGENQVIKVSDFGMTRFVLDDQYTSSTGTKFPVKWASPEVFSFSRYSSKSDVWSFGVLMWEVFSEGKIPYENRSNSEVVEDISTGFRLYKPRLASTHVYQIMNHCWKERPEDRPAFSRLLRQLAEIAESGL
In short: as §1

[3] = target: T3, Lyn (Homo sapiens, UniProt P07948); test: Kinase inhibition assay (33P transfer), Lyn; conditions: Table 6, Lyn-1 kinase inhibition class
T3 construct: Kinases are expressed as either kinase domains or full length constructs; made in house
Description: (§2) The inhibitor compounds described herein are screened in the following manner. Kinases suitable for use in the following protocol to determine kinase activity of the compounds described herein include, -but are not limited to: Lck, Lyn, Src, Fyn, Syk, Zap-70, Itk, Tec, Btk, EGFR, ErbB2, Kdr, Flt-1, Flt-3, Tek, c-Met, InsR, and AKT.
(§3) Kinases are expressed as either kinase domains or full length constructs fused to glutathione S-transferase (GST) or polyHistidine tagged fusion proteins in either E. colior Baculovirus-High Five expression systems. They are purified to near homogeneity by affinity chromatography essentially as previously described (Lehr et al., 1996; Gish et al., 1995). In some instances, kinases are co-expressed or mixed with purified or partially purified regulatory polypeptides prior to measurement of activity.
(§4) Kinase activity and inhibition are measured essentially by established protocols (Braunwalder et al., 1996). Briefly, The transfer of ^33PO4 from ATP to the synthetic substrates poly(Glu, Tyr) 4:1 or poly(Arg, Ser) 3:1 attached to the bioactive surface of microtiter plates serves as the basis to evaluate enzyme activity. After an incubation period, the amount of phosphate transferred is measured by first washing the plate with 0.5% phosphoric acid, adding liquid scintillant, and then counting in a liquid scintillation detector. The IC50 is determined by the concentration of compound that causes a 50% reduction in the amount of […] incorporated onto the substrate bound to the plate.

[4] = target: T4, Lck (Homo sapiens, UniProt P06239); test: Kinase inhibition assay (33P transfer), Lck; conditions: Table 3; read-out: Lck-1
T4 construct: Kinases are expressed as either kinase domains or full length constructs; made in house
In short: (§5)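 Measured by scintillation: radiolabelled phosphate added by tagged recombinant kinases to poly(Glu,Tyr) 4:1 or poly(Arg,Ser) 3:1 attached to microtiter wells, counted once free label was washed away with 0.5% phosphoric acid.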

[5] = target: T5, Zap-70 (Homo sapiens, UniProt P43403); test: Kinase inhibition assay (33P transfer), Zap-70; conditions: read-out: Zap-1
T5 construct: Kinases are expressed as either kinase domains or full length constructs; made in house
T5 sequence (P43403 1-619): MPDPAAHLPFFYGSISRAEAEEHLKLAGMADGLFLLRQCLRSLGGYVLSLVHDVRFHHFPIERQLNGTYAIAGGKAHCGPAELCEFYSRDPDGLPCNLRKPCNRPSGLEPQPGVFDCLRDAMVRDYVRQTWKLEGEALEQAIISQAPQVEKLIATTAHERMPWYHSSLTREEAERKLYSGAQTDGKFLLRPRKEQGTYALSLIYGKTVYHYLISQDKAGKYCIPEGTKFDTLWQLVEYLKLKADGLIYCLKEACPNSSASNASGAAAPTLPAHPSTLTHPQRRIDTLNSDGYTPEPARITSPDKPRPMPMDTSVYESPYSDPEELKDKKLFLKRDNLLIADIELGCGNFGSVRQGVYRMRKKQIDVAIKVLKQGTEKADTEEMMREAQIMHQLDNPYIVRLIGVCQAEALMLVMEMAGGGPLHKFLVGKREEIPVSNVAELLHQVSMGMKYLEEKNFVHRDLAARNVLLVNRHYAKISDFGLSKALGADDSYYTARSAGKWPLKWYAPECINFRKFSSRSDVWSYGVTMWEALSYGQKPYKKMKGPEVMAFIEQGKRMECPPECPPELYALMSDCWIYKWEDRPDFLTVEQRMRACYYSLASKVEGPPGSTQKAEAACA
In short: as §5

[6] = target: T6, Kdr (Homo sapiens, UniProt P35968); test: Kinase inhibition assay (33P transfer), Kdr; conditions: Table 3; read-out: KDR-1
T6 construct: Kinases are expressed as either kinase domains or full length constructs; made in house
In short: as §5

[7] = target: T7, Flt-1 (Homo sapiens, UniProt P17948); test: Kinase inhibition assay (33P transfer), Flt-1
T7 construct: Kinases are expressed as either kinase domains or full length constructs; made in house
Description: as §2, §3, §4

[8] = target: T8, Tek (Homo sapiens, UniProt Q02763); test: Kinase inhibition assay (33P transfer), Tek; conditions: read-out: Tek-1
T8 construct: Kinases are expressed as either kinase domains or full length constructs; made in house
In short: as §1

[9] = target: T9, PDGFRB (Homo sapiens, UniProt P09619); test: Kinase inhibition assay (33P transfer), PDGFRB; conditions: read-out: PDGFRB-1
T9 construct: Kinases are expressed as either kinase domains or full length constructs; made in house

[10] = target: T10, c-Met (Homo sapiens, UniProt P08581); test: Kinase inhibition assay (33P transfer), c-Met; conditions: Table 2, kinase inhibition class; read-out: Met-1
T10 construct: Kinases are expressed as either kinase domains or full length constructs; made in house
In short: as §1

[11] = target: T11, FGFR1 (Homo sapiens, UniProt P11362); test: Kinase inhibition assay (33P transfer), FGFR1; conditions: read-out: FGFR1-1
T11 construct: Kinases are expressed as either kinase domains or full length constructs; made in house

[12] = target: T12, Fyn (Homo sapiens, UniProt P06241); test: Kinase inhibition assay (33P transfer), Fyn; conditions: read-out: Fyn-1
T12 construct: Kinases are expressed as either kinase domains or full length constructs; made in house
Description: as §2, §3, §4

[13] = target: T13, Hck-1 (Homo sapiens, UniProt P08631); test: Kinase inhibition assay (33P transfer), Hck; conditions: Table 6, Hck-1 kinase inhibition class
T13 construct: Kinases are expressed as either kinase domains or full length constructs; made in house

[14] = target: T14, AKT (Homo sapiens, UniProt Q9Y243); test: Kinase inhibition assay (33P transfer), AKT; conditions: Table 2, kinase inhibition class; read-out: AKT3-1
T14 construct: Kinases are expressed as either kinase domains or full length constructs; made in house
In short: as §5

[15] = target: T15, Src (Homo sapiens, UniProt P12931); test: Kinase inhibition assay (33P transfer), Src; conditions: Table 6, Src-1 kinase inhibition class
T15 construct: Kinases are expressed as either kinase domains or full length constructs; made in house
Description: as §2, §3, §4

[16] = target: T16, ErbB4 (Homo sapiens, UniProt Q15303); test: Kinase inhibition assay (33P transfer), ErbB4; conditions: read-out: ErbB4-1
T16 construct: Kinases are expressed as either kinase domains or full length constructs; made in house

[17] = target: T17, ErbB2 (Homo sapiens, UniProt P04626); test: Kinase inhibition assay (33P transfer), ErbB2; conditions: read-out: ErbB2-2
T17 construct: Kinases are expressed as either kinase domains or full length constructs; made in house
In short: as §1

[18] = target: T18, IGFR-1 (Homo sapiens, UniProt P08069); test: Kinase inhibition assay, IGFR-1 (Table 2); conditions: Table 2, kinase inhibition class
T18 construct: Kinases are expressed as either kinase domains or full length constructs; made in house

T15 sequence (P12931 whole entry, species assumed, the tested form may be a part): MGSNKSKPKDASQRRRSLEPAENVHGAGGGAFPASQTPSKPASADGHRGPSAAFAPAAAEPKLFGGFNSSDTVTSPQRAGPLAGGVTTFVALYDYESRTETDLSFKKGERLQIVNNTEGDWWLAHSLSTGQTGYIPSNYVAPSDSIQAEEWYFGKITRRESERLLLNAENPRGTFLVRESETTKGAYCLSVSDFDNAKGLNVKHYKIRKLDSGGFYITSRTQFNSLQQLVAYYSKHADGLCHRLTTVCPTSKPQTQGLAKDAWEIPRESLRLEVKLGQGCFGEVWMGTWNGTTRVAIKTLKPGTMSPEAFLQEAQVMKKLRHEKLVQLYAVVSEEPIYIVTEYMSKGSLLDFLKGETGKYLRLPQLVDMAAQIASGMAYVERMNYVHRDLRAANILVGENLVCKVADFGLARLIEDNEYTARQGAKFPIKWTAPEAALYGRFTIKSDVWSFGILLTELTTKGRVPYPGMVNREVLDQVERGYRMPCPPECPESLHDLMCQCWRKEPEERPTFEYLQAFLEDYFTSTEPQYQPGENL
T8 sequence (Q02763 23-1124, species assumed): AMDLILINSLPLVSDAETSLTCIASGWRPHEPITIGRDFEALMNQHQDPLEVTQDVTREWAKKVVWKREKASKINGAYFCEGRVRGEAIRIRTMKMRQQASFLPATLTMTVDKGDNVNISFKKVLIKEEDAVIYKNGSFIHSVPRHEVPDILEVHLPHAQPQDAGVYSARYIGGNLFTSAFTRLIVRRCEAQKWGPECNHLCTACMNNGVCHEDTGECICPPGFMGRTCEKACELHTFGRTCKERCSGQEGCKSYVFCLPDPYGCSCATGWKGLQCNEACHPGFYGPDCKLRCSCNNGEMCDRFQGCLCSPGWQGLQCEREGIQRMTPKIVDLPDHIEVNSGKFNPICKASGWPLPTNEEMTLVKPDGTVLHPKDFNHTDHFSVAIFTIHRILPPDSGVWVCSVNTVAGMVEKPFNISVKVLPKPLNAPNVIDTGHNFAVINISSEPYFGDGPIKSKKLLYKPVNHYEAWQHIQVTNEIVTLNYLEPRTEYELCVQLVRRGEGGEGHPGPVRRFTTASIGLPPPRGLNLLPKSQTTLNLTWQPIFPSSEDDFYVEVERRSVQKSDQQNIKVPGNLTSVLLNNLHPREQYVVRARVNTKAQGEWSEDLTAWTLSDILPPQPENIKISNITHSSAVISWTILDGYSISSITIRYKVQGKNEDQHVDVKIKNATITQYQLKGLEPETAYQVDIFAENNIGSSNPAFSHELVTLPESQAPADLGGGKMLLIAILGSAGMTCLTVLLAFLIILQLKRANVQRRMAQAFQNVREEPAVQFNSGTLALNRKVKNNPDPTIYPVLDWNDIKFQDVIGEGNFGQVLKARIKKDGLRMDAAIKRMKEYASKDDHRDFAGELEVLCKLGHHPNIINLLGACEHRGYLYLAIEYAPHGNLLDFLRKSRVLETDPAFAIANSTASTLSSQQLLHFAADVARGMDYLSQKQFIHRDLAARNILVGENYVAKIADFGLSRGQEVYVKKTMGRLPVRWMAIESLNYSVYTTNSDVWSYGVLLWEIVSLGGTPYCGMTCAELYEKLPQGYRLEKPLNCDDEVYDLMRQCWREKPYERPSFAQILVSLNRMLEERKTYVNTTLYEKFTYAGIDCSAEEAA
T11 sequence (P11362 22-822, species assumed): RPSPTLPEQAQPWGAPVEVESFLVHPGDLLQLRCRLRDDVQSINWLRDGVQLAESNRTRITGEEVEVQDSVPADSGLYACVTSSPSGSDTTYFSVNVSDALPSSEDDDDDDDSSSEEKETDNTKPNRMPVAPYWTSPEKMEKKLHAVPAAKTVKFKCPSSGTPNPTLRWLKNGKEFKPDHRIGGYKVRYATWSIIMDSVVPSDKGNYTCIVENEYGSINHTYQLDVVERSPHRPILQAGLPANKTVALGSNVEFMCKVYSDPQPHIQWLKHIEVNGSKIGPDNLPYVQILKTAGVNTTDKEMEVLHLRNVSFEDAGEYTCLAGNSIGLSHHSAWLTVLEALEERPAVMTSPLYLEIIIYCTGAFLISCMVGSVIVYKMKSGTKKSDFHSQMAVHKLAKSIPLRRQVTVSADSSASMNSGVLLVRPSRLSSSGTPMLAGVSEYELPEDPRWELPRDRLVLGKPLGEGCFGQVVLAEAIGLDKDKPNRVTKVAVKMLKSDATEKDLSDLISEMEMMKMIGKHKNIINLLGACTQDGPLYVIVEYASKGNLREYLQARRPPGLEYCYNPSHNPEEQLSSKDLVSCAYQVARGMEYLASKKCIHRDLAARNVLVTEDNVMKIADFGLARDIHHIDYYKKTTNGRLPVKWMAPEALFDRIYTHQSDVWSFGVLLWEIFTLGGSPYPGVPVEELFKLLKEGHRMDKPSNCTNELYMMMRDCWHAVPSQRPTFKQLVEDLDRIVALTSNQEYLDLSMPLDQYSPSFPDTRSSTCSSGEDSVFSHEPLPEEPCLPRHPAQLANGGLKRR
T14 sequence (Q9Y243 whole entry, the tested form may be a part): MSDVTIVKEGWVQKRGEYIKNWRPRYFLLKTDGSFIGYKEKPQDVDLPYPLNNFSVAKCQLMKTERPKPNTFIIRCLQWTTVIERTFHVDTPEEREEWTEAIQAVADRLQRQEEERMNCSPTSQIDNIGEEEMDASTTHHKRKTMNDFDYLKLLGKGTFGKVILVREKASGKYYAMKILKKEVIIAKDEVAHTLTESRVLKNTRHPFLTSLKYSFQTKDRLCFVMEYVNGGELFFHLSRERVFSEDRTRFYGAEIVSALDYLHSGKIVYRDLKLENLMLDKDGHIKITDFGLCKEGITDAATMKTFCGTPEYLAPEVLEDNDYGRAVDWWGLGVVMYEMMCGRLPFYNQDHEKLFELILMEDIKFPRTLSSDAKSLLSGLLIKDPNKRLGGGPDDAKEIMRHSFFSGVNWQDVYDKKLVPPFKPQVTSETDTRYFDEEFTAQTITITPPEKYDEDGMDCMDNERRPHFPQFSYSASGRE
T7 sequence (P17948 27-1338, species assumed): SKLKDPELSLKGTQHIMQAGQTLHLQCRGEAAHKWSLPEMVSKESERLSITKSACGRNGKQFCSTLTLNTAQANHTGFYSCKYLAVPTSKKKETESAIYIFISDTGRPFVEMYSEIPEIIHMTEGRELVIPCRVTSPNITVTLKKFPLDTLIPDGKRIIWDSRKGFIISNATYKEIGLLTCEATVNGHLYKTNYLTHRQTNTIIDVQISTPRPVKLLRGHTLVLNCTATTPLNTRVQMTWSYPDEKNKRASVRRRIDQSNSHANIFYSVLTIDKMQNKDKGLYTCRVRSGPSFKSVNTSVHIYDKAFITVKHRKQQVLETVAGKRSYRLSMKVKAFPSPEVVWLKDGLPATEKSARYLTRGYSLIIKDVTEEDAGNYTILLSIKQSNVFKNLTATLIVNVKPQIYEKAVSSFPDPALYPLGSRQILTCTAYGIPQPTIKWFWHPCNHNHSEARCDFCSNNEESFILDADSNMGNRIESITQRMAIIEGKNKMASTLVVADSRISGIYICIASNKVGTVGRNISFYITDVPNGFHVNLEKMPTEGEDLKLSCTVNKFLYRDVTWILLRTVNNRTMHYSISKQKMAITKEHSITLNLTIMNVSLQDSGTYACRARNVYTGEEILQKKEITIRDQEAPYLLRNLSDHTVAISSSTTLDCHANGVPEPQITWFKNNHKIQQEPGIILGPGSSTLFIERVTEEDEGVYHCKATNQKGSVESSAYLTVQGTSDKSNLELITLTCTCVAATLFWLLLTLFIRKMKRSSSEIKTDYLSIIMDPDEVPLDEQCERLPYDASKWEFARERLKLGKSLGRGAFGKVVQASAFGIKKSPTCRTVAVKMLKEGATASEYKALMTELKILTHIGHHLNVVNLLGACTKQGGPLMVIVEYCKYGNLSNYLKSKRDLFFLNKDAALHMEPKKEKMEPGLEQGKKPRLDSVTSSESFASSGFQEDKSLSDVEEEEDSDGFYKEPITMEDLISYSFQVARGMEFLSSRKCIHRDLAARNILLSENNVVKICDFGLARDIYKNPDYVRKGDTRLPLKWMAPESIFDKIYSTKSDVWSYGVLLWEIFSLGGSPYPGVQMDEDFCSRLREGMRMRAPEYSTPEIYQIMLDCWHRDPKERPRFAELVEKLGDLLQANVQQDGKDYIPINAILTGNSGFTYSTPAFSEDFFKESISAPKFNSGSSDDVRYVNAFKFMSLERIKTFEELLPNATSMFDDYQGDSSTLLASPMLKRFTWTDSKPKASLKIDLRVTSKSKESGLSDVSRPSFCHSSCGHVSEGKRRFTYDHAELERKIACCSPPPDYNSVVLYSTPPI
T12 sequence (P06241 whole entry, species assumed, the tested form may be a part): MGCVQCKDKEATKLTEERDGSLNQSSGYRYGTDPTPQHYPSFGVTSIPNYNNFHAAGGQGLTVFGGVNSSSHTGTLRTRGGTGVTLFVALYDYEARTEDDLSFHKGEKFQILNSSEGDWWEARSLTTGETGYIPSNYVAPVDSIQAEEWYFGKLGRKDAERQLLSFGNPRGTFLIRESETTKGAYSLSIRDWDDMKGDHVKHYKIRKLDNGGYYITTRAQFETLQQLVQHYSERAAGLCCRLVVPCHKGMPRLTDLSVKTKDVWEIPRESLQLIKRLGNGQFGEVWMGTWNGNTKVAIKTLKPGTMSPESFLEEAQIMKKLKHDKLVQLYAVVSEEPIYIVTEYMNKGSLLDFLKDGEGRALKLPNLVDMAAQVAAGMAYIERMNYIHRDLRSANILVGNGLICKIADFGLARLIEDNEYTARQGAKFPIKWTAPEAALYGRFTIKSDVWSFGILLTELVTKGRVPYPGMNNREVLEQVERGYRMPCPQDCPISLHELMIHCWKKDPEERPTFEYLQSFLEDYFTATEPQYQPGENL

Row | SMILES | IC50 [1] [µM] | IC50 ([2]; Table 3) [µM] | IC50 [3] [µM] | IC50 [4] [µM] | IC50 ([5]; Table 3) [µM] | IC50 [6] [µM] | IC50 [7] [µM] | IC50 [8] [µM] | IC50 [9] [µM] | IC50 [10] [µM] | IC50 [11] [µM] | IC50 [12] [µM] | IC50 [13] [µM] | IC50 [14] [µM] | IC50 [15] [µM] | IC50 [16] [µM] | IC50 [2] [µM] | IC50 [5] [µM] | IC50 [17] [µM] | IC50 [18] [µM]
1 | COc1cc(Nc2ncnc(-n3ccc4cc(O)ccc43)n2)cc(OC)c1OC [Compound 202] | > 11.4 | < 1.02 | < 1.02 | < 1.02 | > 11.4 | < 1.02 | < 1.02 | 6.1 to 8.9 | < 1.02 | 1.02 to 6.1 | < 1.02 | < 1.02 | > 11.4 | 8.9 to 11.4 | < 1.02 | 1.02 to 6.1 |  |  |  | 
2 | COc1ccc(Nc2nc3ccccc3n2-c2ncnc(Nc3cc(OC)c(OC)c(OC)c3)n2)cc1 [Compound 397] | > 9.01 | > 9.01 | > 9.01 | < 0.801 | > 9.01 | < 0.801 | < 0.801 | > 9.01 | < 0.801 | > 9.01 | < 0.801 | > 9.01 | > 9.01 | > 9.01 | > 9.01 | > 9.01 |  |  |  | 
3 | COc1ccc(Nc2nc3ccccc3n2-c2ncnc(Nc3cc(OC)c(OC)c(OC)c3)n2)cc1OC [Compound 400] | > 8.5 | > 8.5 | > 8.5 | > 8.5 | > 8.5 | < 0.755 | 0.755 to 4.53 | > 8.5 | > 8.5 | > 8.5 | > 8.5 | > 8.5 | > 8.5 | > 8.5 | > 8.5 | > 8.5 |  |  |  | 
4 | COc1cc(Nc2ncnc(-n3c(Nc4cc(C)n[nH]4)nc4ccccc43)n2)cc(OC)c1OC [Compound 401] | 0.845 to 5.07 | < 0.845 | 0.845 to 5.07 | 0.845 to 5.07 | 0.845 to 5.07 | < 0.845 | < 0.845 | 0.845 to 5.07 | < 0.845 | 0.845 to 5.07 | < 0.845 | 0.845 to 5.07 | 0.845 to 5.07 | > 9.5 | 0.845 to 5.07 | 0.845 to 5.07 |  |  |  | 
5 | COc1cc(Nc2ncnc(-n3c(NC(C)C)nc4ccccc43)n2)cc(OC)c1OC [Compound 403] | > 10.3 | > 10.3 | < 0.919 | < 0.919 | > 10.3 | < 0.919 | 0.919 to 5.51 | > 10.3 | < 0.919 | > 10.3 | < 0.919 | 0.919 to 5.51 | > 10.3 | > 10.3 | 0.919 to 5.51 | > 10.3 |  |  |  | 
6 | COc1cc(Nc2ncnc(-n3c(Nc4ccc5[nH]ncc5c4)nc4ccccc43)n2)cc(OC)c1OC [Compound 404] | 6.87 to 8.83 | 0.785 to 4.71 | 0.785 to 4.71 | 0.785 to 4.71 | > 8.83 | < 0.785 | < 0.785 | > 8.83 | < 0.785 | > 8.83 | < 0.785 | 0.785 to 4.71 | 6.87 to 8.83 | 6.87 to 8.83 | 4.71 to 6.87 | > 8.83 |  |  |  | 
7 | COc1cc(Nc2ncnc(N3CCCc4cc(C)ccc43)n2)cc(OC)c1OC [Compound 498] | < 0.982 |  | < 0.982 |  |  |  |  | 8.59 to 11 |  |  |  |  | > 11 | > 11 | < 0.982 | 0.982 to 5.89 | > 11 | > 11 | 0.982 to 5.89 | > 11
